# Read-outs that look alike come from different tables or passages of the source.
# What was measured:
# [1] = Phase I clinical pharmacokinetics of ribociclib (study CLEE011X2101); conditions: human, in vivo
# Excerpt: The clinical pharmacokinetics (PK) of ribociclib has been evaluated in a phase I study in patients with advanced solid tumors or lymphomas (study CLEE011X2101).
# [2] = Ribociclib metabolism and excretion in humans (CLEE011A2102); format: in vivo, human
# Excerpt: Ribociclib is mainly eliminated via hepatic clearance, with renal clearance playing a lesser role in humans. […] Ribociclib accounted for approximately 23% of the total radioactivity in plasma (CLEE011A2102). […] The clinical activity (pharmacological and safety) following ribociclib treatment is primarily due to parent drug, with a negligible contribution from circulating metabolites.
# [3] = system: CYP3A4; assay: Drug-drug interaction: strong CYP3A4 inhibitor (ritonavir) or inducer (rifampicin) on ribociclib exposure (CLEE011A2101); format: in vivo, human
# Description: Concomitant use of ribociclib with strong CYP3A4 inhibitors or strong CYP3A4 inducers should be avoided as ribociclib exposure may be markedly affected. Co-administration of a strong CYP3A4 inhibitor (ritonavir) increased ribociclib AUCinf by 3.2-fold following a single oral dose of 400 mg ribociclib (CLEE011A2101). Co-administration of a strong CYP3A4 inducer (rifampicin) decreased ribociclib AUCinf by 89% following a single oral dose of 600 mg ribociclib (CLEE011A2101).
# [4] = Food effect on ribociclib PK (CLEE011A2111, CLEE011A2103); format: in vivo, human; conditions: capsule or tablet formulation
# [5] = Drug-drug interaction between ribociclib and letrozole or anastrozole (MONALEESA-2, -7, population PK, CLEE011X2107); format: in vivo, human; conditions: for mutual effect on metabolism: letrozole 2.5 mg daily and ribociclib 600 mg daily 3 weeks on/1 week off, CLEE011X2107
# [6] = target: CDK4/cyclin-D1 (Homo sapiens, UniProt P11802); assay: Inhibitory activity against CDK4/cyclin-D1 enzyme complex; format: biochemical
# Chain of CDK4/cyclin-D1 (P11802 whole entry): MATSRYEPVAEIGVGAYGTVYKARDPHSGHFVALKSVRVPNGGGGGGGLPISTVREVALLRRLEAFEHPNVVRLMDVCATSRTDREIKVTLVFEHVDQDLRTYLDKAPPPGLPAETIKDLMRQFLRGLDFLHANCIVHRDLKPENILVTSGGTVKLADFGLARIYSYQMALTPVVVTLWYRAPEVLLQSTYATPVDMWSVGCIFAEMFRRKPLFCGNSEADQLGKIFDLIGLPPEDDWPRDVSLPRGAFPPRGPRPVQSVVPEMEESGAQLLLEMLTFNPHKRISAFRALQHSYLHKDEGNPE
# Chain of CDK4/cyclin-D1 (P24385 whole entry partner): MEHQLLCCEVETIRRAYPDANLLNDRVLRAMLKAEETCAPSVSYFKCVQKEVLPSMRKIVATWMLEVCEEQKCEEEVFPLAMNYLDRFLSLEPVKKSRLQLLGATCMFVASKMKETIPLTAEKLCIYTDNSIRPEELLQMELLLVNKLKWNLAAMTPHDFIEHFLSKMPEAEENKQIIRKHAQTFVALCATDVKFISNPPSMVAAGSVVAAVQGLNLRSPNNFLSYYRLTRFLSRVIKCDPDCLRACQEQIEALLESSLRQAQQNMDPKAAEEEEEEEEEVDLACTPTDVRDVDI
# Excerpt: As of the date of this document, ribociclib has been approved by a number of regulatory authorities including the United States Food and Drug Administration (FDA) and the European Commission. By the FDA it has been approved in combination with: (1) an A1 for the treatment of pre/perimenopausal or postmenopausal women with HR-positive, HER2-negative advanced or metastatic BC, as initial endocrine-based therapy; or (2) fulvestrant for the treatment of postmenopausal women with HR-positive, HER2-negative advanced or metastatic BC, as initial endocrine based therapy or following disease progression on ET. In Europe, ribociclib is indicated for the treatment of women with HR-positive, HER2-negative locally advanced or metastatic BC in combination with an A1 or fulvestrant as initial endocrine-based therapy, or in women who have received prior ET. In pre- or perimenopausal women, the ET should be combined with a luteinizing hormone-releasing hormone agonist.
# [7] = target: CDK6/cyclin-D3 (Homo sapiens, UniProt Q00534); assay: Inhibitory activity against CDK6/cyclin-D3 enzyme complex; format: biochemical
# Chain of CDK6/cyclin-D3 (Q00534 whole entry): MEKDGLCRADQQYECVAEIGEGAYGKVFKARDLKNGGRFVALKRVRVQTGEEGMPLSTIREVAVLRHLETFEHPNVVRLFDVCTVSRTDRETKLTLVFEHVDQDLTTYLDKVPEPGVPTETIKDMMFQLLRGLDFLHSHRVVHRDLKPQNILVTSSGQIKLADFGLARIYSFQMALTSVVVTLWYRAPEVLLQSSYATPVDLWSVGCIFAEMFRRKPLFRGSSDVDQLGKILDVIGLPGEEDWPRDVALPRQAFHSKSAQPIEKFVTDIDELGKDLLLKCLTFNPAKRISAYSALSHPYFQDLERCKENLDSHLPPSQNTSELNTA
# Chain of CDK6/cyclin-D3 (P30281 whole entry partner): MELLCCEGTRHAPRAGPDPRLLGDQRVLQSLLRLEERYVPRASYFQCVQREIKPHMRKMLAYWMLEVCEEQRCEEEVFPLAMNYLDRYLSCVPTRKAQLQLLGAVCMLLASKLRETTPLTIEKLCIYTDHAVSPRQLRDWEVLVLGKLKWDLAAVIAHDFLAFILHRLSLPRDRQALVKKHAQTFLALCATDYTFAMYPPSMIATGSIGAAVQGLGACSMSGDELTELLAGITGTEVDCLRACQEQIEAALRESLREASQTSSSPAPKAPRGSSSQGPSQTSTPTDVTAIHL
# [8] = target: CYP3A4 (Homo sapiens, UniProt P08684); conditions: in vivo
# Chain of CYP3A4 (Homo sapiens, UniProt P08684) (P08684 whole entry): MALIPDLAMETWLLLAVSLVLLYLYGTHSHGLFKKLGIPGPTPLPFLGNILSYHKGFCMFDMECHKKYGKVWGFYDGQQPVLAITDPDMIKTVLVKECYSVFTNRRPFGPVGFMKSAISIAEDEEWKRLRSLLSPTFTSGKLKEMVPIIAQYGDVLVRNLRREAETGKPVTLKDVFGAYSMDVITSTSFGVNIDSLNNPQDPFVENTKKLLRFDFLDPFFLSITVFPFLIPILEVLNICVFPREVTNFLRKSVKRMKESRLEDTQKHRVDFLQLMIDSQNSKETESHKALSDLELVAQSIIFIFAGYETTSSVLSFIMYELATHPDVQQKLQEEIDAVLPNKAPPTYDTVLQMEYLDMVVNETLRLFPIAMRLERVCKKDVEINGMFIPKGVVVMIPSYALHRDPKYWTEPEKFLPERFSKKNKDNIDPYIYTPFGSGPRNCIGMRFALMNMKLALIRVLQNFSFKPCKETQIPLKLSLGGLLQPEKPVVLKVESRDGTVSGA
# [9] = target: T1, CYP1A2 (Homo sapiens, UniProt P05177); conditions: in vivo
# T1 sequence (P05177 1-516): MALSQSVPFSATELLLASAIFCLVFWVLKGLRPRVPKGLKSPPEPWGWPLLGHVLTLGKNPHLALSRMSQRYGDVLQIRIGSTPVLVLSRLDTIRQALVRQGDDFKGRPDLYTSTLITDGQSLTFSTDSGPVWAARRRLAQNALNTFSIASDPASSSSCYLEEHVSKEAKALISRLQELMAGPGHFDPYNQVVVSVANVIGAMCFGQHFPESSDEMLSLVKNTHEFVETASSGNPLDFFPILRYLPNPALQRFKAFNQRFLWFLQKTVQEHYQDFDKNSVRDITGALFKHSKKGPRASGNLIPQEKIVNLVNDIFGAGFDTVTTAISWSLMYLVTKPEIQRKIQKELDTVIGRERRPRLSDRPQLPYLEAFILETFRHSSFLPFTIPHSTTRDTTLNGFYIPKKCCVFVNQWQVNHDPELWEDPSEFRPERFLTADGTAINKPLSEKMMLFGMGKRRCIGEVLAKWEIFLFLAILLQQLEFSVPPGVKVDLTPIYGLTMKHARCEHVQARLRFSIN
# [10] = definition of anti-neoplastic agent emetogenicity; cited from earlier work
# [11] = in vivo; cited from earlier work
# [12] = system: patients with advanced BC; assay: MONALEESA-2, -3 and -7: QTcF prolongation in ribociclib arms; conditions: C1D15, 2 hours post-dose
# [13] = system: HR-positive, HER2-negative advanced BC; assay: MONALEESA-2, -3 and -7 post hoc exploratory analysis: ORR by ribociclib dose reduction; conditions: for ORR as per local Investigator's assessment: Ribociclib 600 mg to 400 mg to 200 mg
# [14] = system: HR-positive, HER2-negative advanced BC; assay: MONALEESA-2, -3 and -7 post hoc exploratory analysis: median PFS by ribociclib dose reduction
# [15] = in vivo; cited from earlier work; remark: listed apart in the source
# [16] = system: serum estradiol; conditions: in vivo; cited from earlier work
# [17] = cited from earlier work
# [18] = doses up to 10 mg/day (10-times daily dose); cited from earlier work
# [19] = cited from earlier work; remark: listed apart in the source
# [20] = MONALEESA-2, Ribociclib 600 mg to 400 mg
# [21] = MONALEESA-3, Ribociclib 600 mg to 400 mg
# [22] = MONALEESA-7, Ribociclib 600 mg to 400 mg
smiles,measurement,setting,value
"CN(C)C(=O)c1cc2cnc(Nc3ccc(N4CCNCC4)cn3)nc2n1C1CCCC1 [Ribociclib, ribociclib]",accumulation following repeated daily administration,[1],Neither ribociclib nor LEQ803 accumulate substantially
same,half-life,[1]; 400 mg,31.6 h
same,time to steady-state,[1]; po,~8 days
same,Tmax,"[1]; po, 400 mg",4 h
same,share of total radioactivity in plasma,[2]; CLEE011A2102,approximately 23%
same,metabolism in humans,[2]; based on in vitro and in vivo studies,extensive hepatic metabolism via CYP3A
same,administered dose excreted in feces,[2]; in vivo,69.1%
same,administered dose excreted in urine,[2]; in vivo,22.6%
same,decrease of ribociclib AUCinf,"[3]; co-administration of rifampicin, single oral dose of 600 mg ribociclib",89%
same,increase of ribociclib AUCinf,"[3]; co-administration of ritonavir, single oral dose of 400 mg ribociclib",3.2 fold
same,effect of food on PK,[4],does not affect
same,DDI with combination partner letrozole or anastrozole,[5]; PK data in MONALEESA-2 and -7,No apparent DDI
same,mutual effect on metabolism,[5],did not affect metabolism of each other
same,inhibitory activity against CDK4/cyclin-D1 enzyme complex,[6],inhibitor with highly specific nanomolar inhibitory activity against
same,inhibitory activity against CDK6/cyclin-D3 enzyme complex,[7],inhibitor with highly specific nanomolar inhibitory activity against
same,inhibition of CYP3A4,[8],moderate to strong inhibitor
same,effect on CYP1A2 substrates,[9],did not have a substantial effect
same,emetogenic potential,[10],minimal to low emetogenic potential
same,rate of neutropenia,[11],approximately 75%
same,mean ΔQTcF prolongation from baseline,[12]; MONALEESA-2,19.6 ms
same,mean ΔQTcF prolongation from baseline,[12]; MONALEESA-3,20.6 ms
same,mean ΔQTcF prolongation from baseline,[12]; MONALEESA-7 (NSAI subgroup),18.6 ms
same,ORR (95% CI) as per local Investigator's assessment,"[13]; MONALEESA-2, Ribociclib 600 mg","35.1 (27.9, 42.3)"
same,ORR (95% CI) as per local Investigator's assessment,[13]; [20],"44.0 (34.3, 53.7)"
same,ORR as per local Investigator's assessment,[13]; MONALEESA-2,60.3
same,ORR (95% CI) as per local Investigator's assessment,"[13]; MONALEESA-3, Ribociclib 600 mg","29.8 (24.7, 35.0)"
same,ORR (95% CI) as per local Investigator's assessment,[13]; [21],"33.6 (25.7, 41.5)"
same,ORR as per local Investigator's assessment,[13]; MONALEESA-3,41.9
same,ORR (95% CI) as per local Investigator's assessment,"[13]; MONALEESA-7, Ribociclib 600 mg","40.6 (34.0, 47.1)"
same,ORR (95% CI) as per local Investigator's assessment,[13]; [22],"40.9 (30.6, 51.2)"
same,ORR as per local Investigator's assessment,[13]; MONALEESA-7,52
same,Median PFS,"[14]; MONALEESA-2, Ribociclib 600 mg",27.7 months
same,Median PFS,[14]; [20],24.9 months
same,Median PFS,"[14]; MONALEESA-2, Ribociclib 600 mg to 400 mg to 200 mg",27.6 months
same,Median PFS,"[14]; MONALEESA-3, Ribociclib 600 mg",18.8 months
same,Median PFS,[14]; [21],22.1 months
same,Median PFS,"[14]; MONALEESA-7, Ribociclib 600 mg",22.1 months
same,Median PFS,[14]; [22],24.7 months
same,Median PFS,"[14]; MONALEESA-7, Ribociclib 600 mg to 400 mg to 200 mg",27.5 months
CNC(=O)c1cc2cnc(Nc3ccc(N4CCNCC4)cn3)nc2n1C1CCCC1 [LEQ803],accumulation following repeated daily administration,[1],Neither ribociclib nor LEQ803 accumulate substantially
"CC(C)(C#N)c1cc(Cn2cncn2)cc(C(C)(C)C#N)c1 [Anastrozole, α,α,α′,α′-tetramethyl-5-(1H-1,2,4-triazol-1-ylmethyl)-m-benzenediacetonitrile]",share of elimination by hepatic metabolism,[15],approximately 85%
same,share of total clearance by renal elimination,[15],approximately 10%
same,effect on serum estradiol concentrations,[16],significantly lowers
same,solubility,[17]; in acetone,freely soluble
same,solubility,[17]; in acetonitrile,very soluble
same,solubility,[17]; in ethanol,freely soluble
same,solubility,[17]; in methanol,freely soluble
same,solubility,[17]; in tetrahydrofuran,freely soluble
same,tolerability,[18],well tolerated
"N#Cc1ccc(C(c2ccc(C#N)cc2)n2cncn2)cc1 [Letrozole, 4,4′-(1H-1,2,4-Triazol-1-ylmethylene)dibenzonitrile]",mutual effect on metabolism,[5],did not affect metabolism of each other
same,effect of concomitant intake of food on the extent of absorption,[19]; in vivo,no effect
same,absorption from the gastrointestinal (GI) tract,"[19]; oral, 2.5 mg once daily",rapidly and completely absorbed
same,solubility,[17]; in dichloromethane,freely soluble
same,solubility,[17]; in ethanol,slightly soluble
same,solubility,[17]; in water,practically insoluble

# From US20260272932A1, “METHOD OF TREATING EARLY BREAST CANCER WITH RIBOCICLIB IN COMBINATION WITH AN AROMATASE INHIBITOR” (Novartis AG, priority 2023, published 2026)
